{"source": "patent US7378397B2", "about": "(The Provost, Fellows and Scholars of the College of the …, priority 2000, dated 2008)", "key": {"[1]": {"molecular_target": "T1, TRH-DE (Sus scrofa, UniProt A0A287AP33)", "T1 construct": "The inventor purified TRH-DE from porcine brain according to purification procedures previously published by Dr. K. Bauer; from tissue; host or cells: porcine brain (TRH-DE); bovine kidney (DPP-IV, gift from Dr. C. H. Williams)", "T1 sequence (A0A287AP33 1-1066)": "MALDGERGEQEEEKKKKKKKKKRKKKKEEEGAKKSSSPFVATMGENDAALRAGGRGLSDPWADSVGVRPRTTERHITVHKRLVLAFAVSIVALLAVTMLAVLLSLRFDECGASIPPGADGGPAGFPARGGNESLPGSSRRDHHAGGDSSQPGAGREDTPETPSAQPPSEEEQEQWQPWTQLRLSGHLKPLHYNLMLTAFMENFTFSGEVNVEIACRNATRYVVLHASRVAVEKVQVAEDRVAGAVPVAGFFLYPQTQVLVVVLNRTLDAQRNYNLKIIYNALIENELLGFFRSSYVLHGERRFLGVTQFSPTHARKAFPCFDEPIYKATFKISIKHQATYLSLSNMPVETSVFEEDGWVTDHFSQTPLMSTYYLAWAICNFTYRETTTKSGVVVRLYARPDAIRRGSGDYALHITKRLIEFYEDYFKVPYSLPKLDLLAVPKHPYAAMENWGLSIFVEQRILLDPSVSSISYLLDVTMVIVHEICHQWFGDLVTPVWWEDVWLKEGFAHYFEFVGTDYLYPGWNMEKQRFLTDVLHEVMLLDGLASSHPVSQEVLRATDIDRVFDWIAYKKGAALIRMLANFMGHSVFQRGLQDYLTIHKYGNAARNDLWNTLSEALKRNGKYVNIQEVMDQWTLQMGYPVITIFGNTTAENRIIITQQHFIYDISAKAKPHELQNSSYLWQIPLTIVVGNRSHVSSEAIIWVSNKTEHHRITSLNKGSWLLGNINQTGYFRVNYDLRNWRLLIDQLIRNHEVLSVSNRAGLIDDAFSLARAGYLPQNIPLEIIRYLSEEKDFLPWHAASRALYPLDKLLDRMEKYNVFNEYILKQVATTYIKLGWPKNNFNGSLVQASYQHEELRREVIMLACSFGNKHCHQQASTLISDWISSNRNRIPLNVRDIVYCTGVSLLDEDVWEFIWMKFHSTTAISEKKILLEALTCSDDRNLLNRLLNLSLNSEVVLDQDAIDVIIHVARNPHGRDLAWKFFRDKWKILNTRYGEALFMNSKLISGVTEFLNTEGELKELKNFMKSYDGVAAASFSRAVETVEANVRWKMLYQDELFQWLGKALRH", "test": "continuous coupled fluorometric TRH-DE assay (TRHAMC substrate, DPP-IV coupling enzyme)", "format": "biochemical, porcine", "details": "for inhibition at 1000 µM: peptide 1 mM, 5 μM TRHAMC substrate", "protocol": "(§1) The inventor purified TRH-DE from porcine brain according to purification procedures previously published by Dr. K. Bauer, (Max-Planck-Institut, Hannover, Germany) (1). TRH-DE was purified almost 20,000 fold. […] Dipeptidyl peptidase IV (DPP-IV) (EC 3.4.14.5), purified from bovine kidney (7.7 mg ml^−1, specific activity of 17.5 U mg^−1 with Gly-ProAMC as substrate), was obtained as a gilt from Dr. C. H. Williams (Queen's University Belfast, U.K). (DPP-IV was used as the coupling enzyme used in the fluorometric assays).\n(§2) One unit (U) of enzyme activity was defined as that amount catalysing the formation of one μmol of product in one minute under the standard conditions employed. All incubations in the assays described below were carried out in 20 mM potassium phosphate buffer, pH 7.5, at 37° C.\nKinetic analysis of peptides that are not hydrolysed by TRH-DE. A recently-developed continuous coupled fluorometric assay (23) was used to investigate the ability of those library peptides that were not hydrolysed by TRH-DE to inhibit TRHAMC degradation by TRH-DE. In this assay, TRHAMC is the substrate and dipeptidyl peptidase IV (DPP-IV) (EC 3.4.14.5) is the coupling enzyme. The reaction sequence is:\nThe reaction was monitored continuously by measuring the increase in AMC fluorescence. A linear progress curve with no discernible lag period was observed when the reaction was monitored over a period of 10 minutes. Nevertheless, data sampling was not commenced until 100 s from the start of the reaction to ensure measurements were taken after a steady state had been reached (see Ref. 23).\nIn a preliminary experiment, the peptides were screened for their ability to inhibit TRH-DE activity. The initial rate of TRHAMC hydrolysis by TRH-DE was measured by incubating 5 μM TRHAMC with 1.23 μg DPP-IV and 0.32 μg TRH-DE, both in the absence and presence of each library peptide (1 mM final concentration) under standard assay conditions (23). In each case the percentage inhibition (i%) was calculated using the equation i%=100(1-vi/vo), where vi and vo are the initial velocities in the presence and absence of peptide, respectively.\nSince these peptides were poor inhibitors they were not examined further. The Ki values for the remainder of the peptides were determined by measuring their effects on TRHAMC degradation by TRH-DE using the continuous assay. Data were collected in duplicate at five different substrate concentrations and at least three different concentrations of each peptide.\nReversibility and time dependence of the inhibition produced by Glp-Gln-ProNH2, Glp-Asn-ProNH2 and Glp-Asn-ProAMC were examined by initially preincubating TRH-DE with each peptide at 37° C. for various periods up to 75 min. To investigate time dependence, the enzyme-peptide solution was subsequently added to the reaction mixture containing TRHAMC, DPP-IV, buffer and peptide, and TRH-DE activity was measured using the continuous assay. The final concentration of Glp-Gln-ProNH2, Glp-Asn-ProNH2 and Glp-Asn-ProAMC used was 400, 160 and 1 μM, respectively. […] TRH-DE activity was not affected by pre-incubation at 37° C.\nFluorescence measurements were made using a Perkin Elmer LS 50B Luminescence Spectrometer fitted with a thernostated cell holder. Wavelengths for excitation and emission were set at 370 nm and 440 nm, respectively, with slit widths of 10 nm and 5 nm, respectively."}, "[2]": {"molecular_target": "T1, TRH-DE", "test": "HPLC assay of peptide hydrolysis by TRH-DE (Glp production)", "format": "biochemical, porcine", "details": "for hydrolysis by TRH-DE (release of Glp): 1 mM peptide incubated with TRH-DE 18 h at 37° C., HPLC; for Rate of hydrolysis: peptide 1 mM, 37° C., Glp production by HPLC, mean±S.D.", "protocol": "as §1, §2\nKinetic analysis of the peptide library using HPLC—The ability of each peptide in the library to act as a TRH-DE substrate was assessed using HPLC. As an initial screen, 1 mM peptide was incubated with 0.8 μg TRH-DE in a total volume of 1 ml for 18 h at 37° C. Control samples were included in which peptide (1 mM) or Glp (0.2 mM-0.8 mM) were incubated under identical conditions in the absence of TRH-DE. TRH-DE activity was terminated by the addition of TFA (0.15% v/v) and samples were then analysed using HPLC as described previously (24). Products resulting from TRH-DE hydrolysis could be separated on a C-18 reverse-phase column (Hypersil, UK) using a linear gradient of 0-70% acetonitrile in 0.08% (v/v) TFA. The concentration of Glp formed by the action of TRH-DE on the peptide library was measured by UV absorbance at 206 nm with a quantitative detection limit of 0.1 mM for a 40 μl injection volume, employing a signal to noise ratio of 10. Following the incubation of each peptide with TRH-DE, evidence of Glp in the sample was taken to indicate that the peptide was a TRH-DE substrate.\nThe rates of hydrolysis for each of those peptides identified as substrates were then compared by measuring Gip production using microassays with shorter incubation times. In these assays peptide (1 mM) was incubated at 37° C. in a total volume of 100 μl. 0.8-3.2 μg TRH-DE and incubations times of 5 min to 18 h were used routinely. Measurements were made in triplicate. The rate of TRH-OH hydrolysis was also measured by this method."}, "[3]": {"details": "from the percent inhibition (n = 3) in the presence of 5 μM substrate"}, "[4]": {"details": "non-linear regression, five TRHAMC concentrations and at least three peptide concentrations, mean±S.D. (n=3)"}, "[5]": {"details": "calculated from percent inhibition measured in duplicate at 5 μM substrate"}, "[6]": {"details": "estimated from <20% inhibition at 1 mM peptide with the competitive inhibition relationship"}}, "note": "Where a SMILES comes first, the peptide text is derived from it. [ ]: non-standard residue; d: D form. The star is where a group is joined. hPhe = N[C@@H](CCc1ccccc1)C(=O)O; AMC = Cc1cc(=O)oc2cc(N*)ccc12; pGlu = O=C1CC[C@@H](C(=O)O)N1; Phg = N[C@H](C(=O)O)c1ccccc1; NHBn = c1ccc(CN*)cc1", "data": [{"compound": "Cc1cc(=O)oc2cc(NC(=O)[C@H](Cc3c[nH]c4ccccc34)NC(=O)[C@@H]3CCCN3C(=O)[C@H](CC(N)=O)NC(=O)[C@@H]3CCC(=O)N3)ccc12", "note": "[Glp-Asn-Pro-Trp-AMC] ([pGlu]NPW-{AMC})", "values": [{"measurement": "Ki", "setting": "[1]; [3]", "result": 0.08, "unit": "µM"}]}, {"compound": "Cc1cc(=O)oc2cc(NC(=O)[C@H](Cc3c[nH]c4ccccc34)NC(=O)[C@H](Cc3ccc(O)cc3)NC(=O)[C@@H]3CCCN3C(=O)[C@H](CC(N)=O)NC(=O)[C@@H]3CCC(=O)N3)ccc12", "note": "[Glp-Asn-Pro-Tyr-Trp-AMC] ([pGlu]NPYW-{AMC})", "values": [{"measurement": "Ki", "setting": "[1]; [4]", "result": 0.04, "unit": "µM"}]}, {"compound": "NC(=O)C[C@H](NC(=O)[C@@H]1CCC(=O)N1)C(=O)N1CCC[C@H]1C(=O)NC1CCCc2ccccc21", "note": "(single isomer, unassigned) [1,2,3,4-tetrahydro-1-naphthylamide isomer 2]", "values": [{"measurement": "Ki", "setting": "[1]; [5]", "result": 22.4, "unit": "µM"}]}, {"compound": "NC(=O)C[C@H](NC(=O)[C@@H]1CCC(=O)N1)C(=O)N1CCC[C@H]1C(=O)NCc1ccccc1", "note": "[Benzylamide] ([pGlu]-Asn-Pro-NHBn)", "values": [{"measurement": "Ki", "setting": "[1]; [5]", "result": 11.9, "unit": "µM"}]}, {"compound": "NC(=O)[C@@H]1CCCN1C(=O)[C@H](Cc1c[nH]c2ccccc12)NC(=O)[C@@H]1CCC(=O)N1", "note": "[Glp-Trp-ProNH2] ([pGlu]-Trp-Pro-NH2)", "values": [{"measurement": "hydrolysis by TRH-DE (release of Glp)", "setting": "[2]", "result": "No detectable Glp"}, {"measurement": "Ki", "setting": "[1]; [4]", "result": "232 ± 26", "unit": "µM"}, {"measurement": "inhibition at 1000 µM", "setting": "[1]", "result": 71, "unit": "%"}]}, {"compound": "[pGlu]-Leu-Pro-NH2", "values": [{"measurement": "Rate of hydrolysis", "setting": "[2]", "result": "0.14 ± 0.01 (5) U mg^−1"}]}, {"compound": "NC(=O)[C@@H]1CCCN1C(=O)[C@@H]1CCCN1C(=O)[C@@H]1CCC(=O)N1", "note": "[Glp-Pro-ProNH2] ([pGlu]-Pro-Pro-NH2)", "values": [{"measurement": "hydrolysis by TRH-DE (release of Glp)", "setting": "[2]", "result": "No detectable Glp"}, {"measurement": "Ki", "setting": "[1]; [6]", "result": "> 1000", "unit": "µM"}, {"measurement": "inhibition at 1000 µM", "setting": "[1]", "result": 3, "unit": "%"}]}, {"compound": "COc1ccc(NC(=O)[C@@H]2CCCN2C(=O)[C@H](CC(N)=O)NC(=O)[C@@H]2CCC(=O)N2)cc1", "note": "[p-anisidide]", "values": [{"measurement": "Ki", "setting": "[1]; [5]", "result": 3.24, "unit": "µM"}]}, {"compound": "NC(=O)C[C@H](NC(=O)[C@@H]1CCC(=O)N1)C(=O)N1CCC[C@H]1C(=O)N[C@@H](Cc1c[nH]c2ccccc12)C(=O)N[C@@H](Cc1ccc(O)cc1)C(N)=O", "note": "[Glp-Asn-Pro-Trp-Tyr-NH2] ([pGlu]NPWY-NH2)", "values": [{"measurement": "Ki", "setting": "[1]; [3]", "result": 5.91, "unit": "µM"}]}, {"compound": "[pGlu]-[hPhe]-Pro-NH2", "values": [{"measurement": "Rate of hydrolysis", "setting": "[2]", "result": "0.05 ± 0.00 (3) U mg^−1"}]}, {"compound": "[pGlu]-Met-Pro-NH2", "values": [{"measurement": "Rate of hydrolysis", "setting": "[2]", "result": "0.21 ± 0.03 (4) U mg^−1"}]}, {"compound": "[pGlu]-Ser-Pro-NH2", "values": [{"measurement": "Rate of hydrolysis", "setting": "[2]", "result": "0.05 ± 0.00 (3) U mg^−1"}]}, {"compound": "NC(=O)C[C@H](NC(=O)[C@@H]1CCC(=O)N1)C(=O)N1CCC[C@H]1C(=O)NC1CCCc2ccccc21", "note": "(single isomer, unassigned)", "values": [{"measurement": "Ki", "setting": "[1]; [5]", "result": 63.2, "unit": "µM"}]}, {"compound": "[pGlu]-Thr-Pro-NH2", "values": [{"measurement": "Rate of hydrolysis", "setting": "[2]", "result": "0.14 ± 0.01 (5) U mg^−1"}]}, {"compound": "NC(=O)[C@@H]1CCCN1C(=O)[C@H](CC(=O)O)NC(=O)[C@@H]1CCC(=O)N1", "note": "[Glp-Asp-ProNH2] ([pGlu]-Asp-Pro-NH2)", "values": [{"measurement": "hydrolysis by TRH-DE (release of Glp)", "setting": "[2]", "result": "No detectable Glp"}, {"measurement": "Ki", "setting": "[1]; [6]", "result": "> 1000", "unit": "µM"}, {"measurement": "inhibition at 1000 µM", "setting": "[1]", "result": 1, "unit": "%"}]}, {"compound": "NC(=O)C[C@H](NC(=O)[C@@H]1CCC(=O)N1)C(=O)N1CCC[C@H]1C(=O)N[C@@H](Cc1ccc(O)cc1)C(N)=O", "note": "[Glp-Asn-Pro-Tyr-NH2] ([pGlu]NPY-NH2)", "values": [{"measurement": "Ki", "setting": "[1]; [3]", "result": 10.3, "unit": "µM"}]}, {"compound": "NC(=O)[C@@H]1CCCN1C(=O)[C@@H](NC(=O)[C@@H]1CCC(=O)N1)c1ccccc1", "note": "[Glp-Phg-ProNH2] ([pGlu]-[Phg]-Pro-NH2)", "values": [{"measurement": "hydrolysis by TRH-DE (release of Glp)", "setting": "[2]", "result": "No detectable Glp"}, {"measurement": "Ki", "setting": "[1]; [4]", "result": "356 ± 19", "unit": "µM"}, {"measurement": "inhibition at 1000 µM", "setting": "[1]", "result": 57, "unit": "%"}]}]}
